Like-named read-outs stand apart in the source and are kept apart here.
Experiments:
[1] = test system: PTZ-induced seizure; experiment: Pentylenetetrazole (PTZ)-induced seizure; format: in vivo, Wistar rats; details: for PTZ-Induced Seizure (protection class): PTZ 60 mg/kg; for protective effect in PTZ-induced seizure (in words): observed over 30 min, vs saline-treated group
Experimental: (§1) In this study and according to previously used protocols, two chemical agents have been used to induce seizures, namely pentylenetetrazole (PTZ, 60 mg/kg, i.p.) and strychnine (STR, 3.5 mg/kg, i.p.). PTZ 60 mg/kg or STR 3.5 mg/kg were administered i.p. to all groups of seven rats (n = 7), that is, animals pretreated with vehicle or test compounds 1–16. Vehicle, VPA (300 mg/kg, i.p.), [26, 47, 48, 49] or test compounds 1–16 (10 mg/kg, i.p.) were systemically administered 30–45 min before PTZ (60 mg/kg, i.p.) or STR (3.5 mg/kg, i.p.) injection, and animals were directly observed for any signs of convulsion for a duration of 30 min. The observed scores as well as percent protection against generalized tonic-clonic seizure (GTCS) were graded and scaled according to the Racine scale (stage 0, no change in behavior; stage 1, stereotype mouthing, eye blinking, and/or mild facial clonus; stage 2, head nodding and/or severe facial clonus; stage 3, myoclonic jerk in forelimbs; stage 4, clonic convulsions in the forelimbs with rearing; stage 5, generalized colonic convulsions associated with loss of balance) to evaluate the protection provided by the respective test compound against seizures. The animals were divided into eighteen groups of seven rats (n = 7) and treated as follows.
(§2) (1) Control group injected with vehicle + PTZ (SAL group), (2) positive control group in which rats were injected with VPA (300 mg/kg) + PTZ (VPA group), and animals in the test groups (3)–(18) were systemically administered with test compounds 1–16 (10 mg/kg), respectively. An additional PTZ experiment was conducted using three different groups of seven rats (n = 7), the H3R ligand with the most promising protection in PTZ model was administered at doses of 2.5, 5, or 15 mg/kg, i.p. 30–45 min before the PTZ challenge. […] The same experimental procedure was followed in the STR-induced seizure model applying the reference drug VPA, which was used at a dose of 300 mg/kg, i.p. (Figure 3, Table 2).

[2] = test system: MES-induced seizure; experiment: Maximal electroshock (MES)-induced seizure; format: in vivo, Wistar rats; details: 10 mg/kg i.p.; for MES-Induced Seizure (protection class): 50 Hz, 120 mA, 1 s
Text: As previously described, the seizures were induced in rats with a 50 Hz alternating current of 120 mA intensity. The current was applied through ear electrodes for 1 s. Protection against the spread of MES-induced seizure was defined as the abolition of the tonic hind limb extension (THLE) component of the seizure. For the first screening of protective effects of test compounds 1–16 in the MES-induced seizure model, the animals were divided into eighteen groups of seven rats (n = 7) as follows; group (1) control group injected with vehicle (SAL), group (2) positive control group in which rats were injected with PHT at a dose of 10 mg/kg (this being the minimal dose of PHT that protected animals against the spread of MES-induced seizures without mortality), and groups (3)–(18) animals in the experimental groups were administered H3R antagonists 1–16 at a dose of 10 mg/kg. In another MES experiment in three separate groups of six rats (n = 6), H3R antagonist 4 with the most promising protection in MES model was administered at doses of 2.5, 5, or 15 mg/kg, i.p. 30–45 min before the MES challenge.

[3] = test system: STR-induced seizure; experiment: Strychnine (STR)-induced seizure; format: in vivo, Wistar rats; details: for STR-Induced Seizure (protection class): STR 3.5 mg/kg; for protective effect in STR-induced seizure (in words): 30 min observation, vs saline-treated group
Experimental: as §1, §2

[4] = biological target: T1, human histamine H3R (Homo sapiens, UniProt Q9Y5N1); experiment: [3H]Nα-methylhistamine radioligand displacement assay, HEK-293 cell membranes; format: binding
T1 construct: expressed in transfected cells
Experimental: As described previously, the affinity for the human histamine H3R was tested utilizing radioligand displacement assays with [^3H]N^α-methylhistamine at membrane preparations from human embryonic kidney (HEK)-293 cells, stably expressing the receptor. […] The analysis of data was conducted by the software GraphPad Prism 7 (San Diego, CA, USA), using the “one-site competition” equation. Ki values were calculated from the 50 percent of inhibitory concentration (IC50) values according to the Cheng-Prusoff equation [44]

[5] = biological target: T2, human H1 receptor (Homo sapiens, UniProt P35367); experiment: Radioligand binding, membranes from CHO-K1 cells
T2 construct: purchased PerkinElmer; host or cells: CHO-K1 cells, stably transfected (membranes)
Experimental: Radioligand binding was performed as previously described using membranes from CHO-K1 cells stably transfected with the human H1 receptor (PerkinElmer., Waltham, MA, USA). Data were fitted to a one-site curve-fitting equation with Prism 6 (GraphPad Software, city, state, country) and Ki values were estimated from the Cheng–Prusoff equation [44].

[6] = biological target: T3, hH4R (Homo sapiens, UniProt Q9H3N8); experiment: H4R radioligand displacement assay, Sf9 cell membrane preparations; format: binding
T3 construct: expressed in transfected cells; host or cells: Sf9 insect cells (membrane preparations)
Experimental: H4R radioligand displacement assays were performed with Sf9 cell membrane preparations, expressing the hH4R, as described previously. Assays ran in triplicates with four appropriate concentrations of the test compound. Data were analyzed by GraphPad Prism 7, using the “one-site competition” equation.

[7] = mean with 95% confidence interval, read-out: In Vitro Affinity Ki (hH3R) in nM [CI]

T2 sequence (P35367 whole entry): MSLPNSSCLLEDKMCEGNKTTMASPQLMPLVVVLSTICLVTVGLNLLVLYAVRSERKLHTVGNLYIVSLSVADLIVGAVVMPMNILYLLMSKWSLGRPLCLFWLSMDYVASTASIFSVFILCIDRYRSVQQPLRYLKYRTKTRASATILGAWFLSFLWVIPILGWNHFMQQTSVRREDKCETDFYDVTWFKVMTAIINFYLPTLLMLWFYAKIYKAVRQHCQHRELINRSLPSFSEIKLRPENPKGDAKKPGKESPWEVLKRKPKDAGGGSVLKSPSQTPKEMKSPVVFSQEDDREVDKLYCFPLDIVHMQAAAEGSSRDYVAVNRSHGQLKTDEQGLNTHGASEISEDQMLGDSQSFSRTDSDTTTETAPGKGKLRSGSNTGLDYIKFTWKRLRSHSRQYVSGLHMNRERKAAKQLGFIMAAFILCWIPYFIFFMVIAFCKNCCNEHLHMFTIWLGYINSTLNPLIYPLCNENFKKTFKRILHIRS
T1 sequence (Q9Y5N1 whole entry): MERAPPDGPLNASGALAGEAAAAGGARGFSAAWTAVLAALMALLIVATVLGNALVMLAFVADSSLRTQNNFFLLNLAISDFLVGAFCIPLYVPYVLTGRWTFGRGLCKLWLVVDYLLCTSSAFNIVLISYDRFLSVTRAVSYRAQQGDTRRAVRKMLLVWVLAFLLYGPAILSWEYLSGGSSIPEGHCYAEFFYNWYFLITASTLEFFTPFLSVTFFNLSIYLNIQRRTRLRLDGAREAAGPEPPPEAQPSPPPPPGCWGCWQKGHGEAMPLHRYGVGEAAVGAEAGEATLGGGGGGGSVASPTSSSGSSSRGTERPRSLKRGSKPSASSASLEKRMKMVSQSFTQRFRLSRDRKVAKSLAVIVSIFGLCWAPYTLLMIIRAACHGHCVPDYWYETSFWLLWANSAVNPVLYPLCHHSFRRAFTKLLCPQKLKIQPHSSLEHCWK
T3 sequence (Q9H3N8 whole entry): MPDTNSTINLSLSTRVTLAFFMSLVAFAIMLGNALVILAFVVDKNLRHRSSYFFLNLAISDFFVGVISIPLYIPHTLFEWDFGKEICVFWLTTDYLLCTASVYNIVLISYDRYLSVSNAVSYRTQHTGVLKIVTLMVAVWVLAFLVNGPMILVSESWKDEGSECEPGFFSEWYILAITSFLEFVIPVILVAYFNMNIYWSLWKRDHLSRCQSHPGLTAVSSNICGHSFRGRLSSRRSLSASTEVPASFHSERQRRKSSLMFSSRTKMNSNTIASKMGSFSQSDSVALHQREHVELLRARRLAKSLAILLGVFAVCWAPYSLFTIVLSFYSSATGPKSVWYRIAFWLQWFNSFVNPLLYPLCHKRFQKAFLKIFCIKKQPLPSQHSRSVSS

CC1CCCN(CCCCCOc2ccc3ccccc3c2)C1.O=C(O)C(=O)O (stereo not shown) [Ligand 1, 3-methyl-1-(5-(naphthalen-2-yloxy)pentyl)piperidine hydrogen oxalate]
PTZ-Induced Seizure (protection class) ([1]; 10 mg/kg i.p.): − | MES-Induced Seizure (protection class) [2]: − | STR-Induced Seizure (protection class) ([3]; 10 mg/kg i.p.): −

O=C(O)C(=O)O.c1ccc2cc(OCCCCCN3CCCCCC3)ccc2c1 [Ligand 2, 1-(5-(naphthalen-2-yloxy)pentyl)azepane hydrogen oxalate]
PTZ-Induced Seizure (protection class) ([1]; 10 mg/kg i.p.): − | MES-Induced Seizure (protection class) [2]: − | STR-Induced Seizure (protection class) ([3]; 10 mg/kg i.p.): −

CC1CCCN(CCCCCCOc2ccc3ccccc3c2)C1.O=C(O)C(=O)O (stereo not shown) [Ligand 3, 3-methyl-1-(6-(naphthalen-2-yloxy)hexyl)piperidine hydrogen oxalate]
PTZ-Induced Seizure (protection class) ([1]; 10 mg/kg i.p.): − | MES-Induced Seizure (protection class) [2]: ++ (high protective effect (THLE duration <1, seizure score 0)) | STR-Induced Seizure (protection class) ([3]; 10 mg/kg i.p.): −

O=C(O)C(=O)O.O=C(c1ccccc1)c1ccc(OCCCCCCN2CCCCC2)cc1 [Ligand 5, phenyl(4-(6-(piperidin-1-yl)hexyloxy)phenyl)methanone hydrogen oxalate]
PTZ-Induced Seizure (protection class) ([1]; 10 mg/kg i.p.): − | MES-Induced Seizure (protection class) [2]: ++ (high protective effect (THLE duration <1, seizure score 0)) | STR-Induced Seizure (protection class) ([3]; 10 mg/kg i.p.): − | Ki [4]: 41.1 nM

O=C(O)C(=O)O.O=C(c1ccccc1)c1ccc(OCCCCCCN2CCCCCC2)cc1 [Ligand 7, (4-(6-(azepan-1-yl)hexyloxy)phenyl)(phenyl)methanone hydrogen oxalate]
protective effect in PTZ-induced seizure (in words) ([1]; 10 mg/kg i.p.): full protective activities | PTZ-Induced Seizure (protection class) ([1]; 10 mg/kg i.p.): ++ (high protective effect (THLE duration <1, seizure score 0)) | Ki [5]: 915 nM | fold lower affinity at hH1- and H4Rs than at H3R ([5]; selectivity toward H3Rs): at least 10 fold | MES-Induced Seizure (protection class) [2]: + (moderate protective effect (tonic hind limb extension (THLE) duration in the range of 2–5 s, seizure score in the range of 2–4)) | protective effect in STR-induced seizure (in words) ([3]; 10 mg/kg i.p.): failed to exhibit appreciable protection | STR-Induced Seizure (protection class) ([3]; 10 mg/kg i.p.): − | Ki [4]: 40.5 nM | Ki [6]: > 10000 nM

O=C(O)C(=O)O.O=C(c1ccccc1)c1cccc(OCCCCCCN2CCCCC2)c1 [Ligand 8, phenyl(3-(6-(piperidin-1-yl)hexyloxy)phenyl)methanone hydrogen oxalate]
PTZ-Induced Seizure (protection class) ([1]; 10 mg/kg i.p.): − | MES-Induced Seizure (protection class) [2]: + (moderate protective effect (tonic hind limb extension (THLE) duration in the range of 2–5 s, seizure score in the range of 2–4)) | STR-Induced Seizure (protection class) ([3]; 10 mg/kg i.p.): − | Ki [4]: 76.1 nM

CC1CCCN(CCCCCCOc2cccc(C(=O)c3ccccc3)c2)C1.O=C(O)C(=O)O (stereo not shown) [Ligand 9, (3-(6-(3-methylpiperidin-1-yl)hexyloxy)phenyl)(phenyl)methanone hydrogen oxalate]
PTZ-Induced Seizure (protection class) ([1]; 10 mg/kg i.p.): − | Ki [5]: 915 to 1340 nM | MES-Induced Seizure (protection class) [2]: − | STR-Induced Seizure (protection class) ([3]; 10 mg/kg i.p.): − | Ki [4]: 110 nM

O=C(O)C(=O)O.O=C(c1ccccc1)c1cccc(OCCCCCCN2CCCCCC2)c1 [Ligand 10, (3-(6-(azepan-1-yl)hexyloxy)phenyl)(phenyl)methanone hydrogen oxalate]
PTZ-Induced Seizure (protection class) ([1]; 10 mg/kg i.p.): − | MES-Induced Seizure (protection class) [2]: − | STR-Induced Seizure (protection class) ([3]; 10 mg/kg i.p.): − | Ki [4]: 69.5 nM

Fc1ccc(OCCCCCCN2CCCCC2)cc1.O=C(O)C(=O)O [Ligand 11, 1-(6-(4-fluorophenoxy)hexyl)piperidine hydrogen oxalate]
protective effect in PTZ-induced seizure (in words) ([1]; 10 mg/kg i.p.): full protective activities | PTZ-Induced Seizure (protection class) ([1]; 10 mg/kg i.p.): ++ (high protective effect (THLE duration <1, seizure score 0)) | MES-Induced Seizure (protection class) [2]: − | protective effect in STR-induced seizure (in words) ([3]; 10 mg/kg i.p.): failed to exhibit appreciable protection | STR-Induced Seizure (protection class) ([3]; 10 mg/kg i.p.): − | Ki [4, 7]: 115 nM

CC1CCCN(CCCCCCOc2ccc(F)cc2)C1.O=C(O)C(=O)O (stereo not shown) [Ligand 12, 1-(6-(4-fluorophenoxy)hexyl)-3-methylpiperidine hydrogen oxalate]
PTZ-Induced Seizure (protection class) ([1]; 10 mg/kg i.p.): + (moderate protective effect (tonic hind limb extension (THLE) duration in the range of 2–5 s, seizure score in the range of 2–4)) | MES-Induced Seizure (protection class) [2]: − | STR-Induced Seizure (protection class) ([3]; 10 mg/kg i.p.): − | Ki [4, 7]: 83.6 nM

O=C(O)C(=O)O.O=C(c1ccccc1)c1ccc(OCCCCCN2CCCCC2)cc1 [Ligand 14, phenyl(4-(5-(piperidin-1-yl)pentyloxy)phenyl)methanone hydrogen oxalate]
PTZ-Induced Seizure (protection class) ([1]; 10 mg/kg i.p.): + (moderate protective effect (tonic hind limb extension (THLE) duration in the range of 2–5 s, seizure score in the range of 2–4)) | MES-Induced Seizure (protection class) [2]: + (moderate protective effect (tonic hind limb extension (THLE) duration in the range of 2–5 s, seizure score in the range of 2–4)) | STR-Induced Seizure (protection class) ([3]; 10 mg/kg i.p.): − | Ki [4]: 36.2 nM

CC1CCCN(CCCCCOc2ccc(C(=O)c3ccccc3)cc2)C1.O=C(O)C(=O)O (stereo not shown) [Ligand 15, (4-(5-(3-methylpiperidin-1-yl)pentyloxy)phenyl)(phenyl)methanone hydrogen oxalate]
PTZ-Induced Seizure (protection class) ([1]; 10 mg/kg i.p.): + (moderate protective effect (tonic hind limb extension (THLE) duration in the range of 2–5 s, seizure score in the range of 2–4)) | Ki [5]: 915 to 1340 nM | MES-Induced Seizure (protection class) [2]: − | STR-Induced Seizure (protection class) ([3]; 10 mg/kg i.p.): − | Ki [4]: 40.2 nM

O=C(O)C(=O)O.O=C(c1ccccc1)c1ccc(OCCCCCN2CCCCCC2)cc1 [Ligand 16, (4-(5-(azepan-1-yl)pentyloxy)phenyl)(phenyl)methanone hydrogen oxalate]
PTZ-Induced Seizure (protection class) ([1]; 10 mg/kg i.p.): − | MES-Induced Seizure (protection class) [2]: − | STR-Induced Seizure (protection class) ([3]; 10 mg/kg i.p.): − | Ki [4]: 38.5 nM

O=C1NC(=O)C(c2ccccc2)(c2ccccc2)N1 [PHT, phenytoin, reference compound]
MES-Induced Seizure Average THLE [2]: 0.90 ± 0.19 s

C[C@@H](N)Cc1c[nH]cn1 [RAMH, (R)-α-methylhistamine, reference compound]
PTZ-Induced Seizure % Protection against GTCS ([1]; 10 mg/kg i.p.): 14.29% | PTZ-Induced Seizure Average Seizure Score ([1]; 10 mg/kg i.p.): 4.29 ± 0.25 | protective effect in PTZ-induced seizure (in words) ([1]; 10 mg/kg i.p.): did not affect seizure score | MES-Induced Seizure Average THLE [2]: 7.92 ± 0.60 s | protective effect in MES-induced seizure (in words) ([2]; vs saline-treated group): did not affect MES-induced seizures | STR-Induced Seizure % Protection against GTCS ([3]; 10 mg/kg i.p.): 28.57% | STR-Induced Seizure Average Seizure Score ([3]; 10 mg/kg i.p.): 4.71 ± 0.16

CCCC(CCC)C(=O)O [VPA, valproic acid, reference compound]
PTZ-Induced Seizure % Protection against GTCS ([1]; 300 mg/kg i.p.): 100% | PTZ-Induced Seizure Average Seizure Score ([1]; 300 mg/kg i.p.): 0.00 ± 0.00 | STR-Induced Seizure % Protection against GTCS ([3]; 300 mg/kg i.p.): 100% | STR-Induced Seizure Average Seizure Score ([3]; 300 mg/kg i.p.): 0
